Measured values taken from US10281476B2, “Methods to identify modulators of RyR calcium channels” (REGENTS OF THE UNIVERSITY OF MINNESOTA, priority 2013, dated 2019).
pKd: −log10 of the molar value. Where no end group is shown, it is not given here.

Target: RyR2 (Rattus norvegicus, UniProt B0LPN4)
Assay: Steady-state F-DPc10 binding at the Z-line of saponin-permeabilized myocytes (confocal)
Design: endogenous in cells; host or cells: saponin-permeabilized adult rat ventricular myocytes
Procedure: Rat ventricular myocytes were isolated and permeabilized as previously described (Li et al., Circ Res, 2002; 90:309-316). All procedures were performed according to the Guiding Principles in the Care and Use of the Animals and were approved by the Council of American Physiological Society. DPc10, FKBP12.6, and CaM were labeled at specific sites with small fluorescence probes, similar to our previous studies (Guo et al., Circ Res, 2010; 106:1743-1752; Cornea et al., PNAS USA, 2009; 106:6128-6133; Guo et al., Biophys J, 2011; 101:2170-2177).
Confocal images was measured using a Biorad RADIANCE2100™ laser scanning confocal microscope equipped with an Argon ion laser, Green HeNe laser and with a Nikon Fluo x40 oil lens. FRET (fluorescence resonance energy transfer) experiments between CaM and DPc10, and FKBP12.6 and DPc10 were performed using an Olympus FV1000 confocal microscope. All experiments were done at room temperature.
Myocytes were exposed to […] F-DPc10, with intracellular [Ca^2+] ([Ca^2+]i) set at 50 nmol/L. F-DPc10 fluorescence is highest at the Z-lines, where RyR2 is concentrated, forming a typical cross-striated pattern. The difference between fluorescence intensity at the Z-line (Fz) and M-line (FM) is taken to represent [F-DPc10] specifically bound at the myocyte Z-line. We calibrated the bound [F-DPc10] in permeabilized myocytes using the linear relationship between F-DPc10 fluorescence and bath [F-DPc10] (FIG. 7B). […] To further test whether this Z-line-associated F-DPc10 represents RyR2-bound F-DPc10, we measured FRET between FKBP12.6 (known to specifically bind to RyR2 with subnanomolar affinity) (Guo et al., Circ Res, 2010; 106:1743-1752) and F-DPc10. […] Donor (AF568-FKBP12.6) fluorescence at the Z-line was quenched by HF647-DPc10, but the M-line signal was not (FIG. 9B). […]

RyR2, sequence (B0LPN4 whole entry): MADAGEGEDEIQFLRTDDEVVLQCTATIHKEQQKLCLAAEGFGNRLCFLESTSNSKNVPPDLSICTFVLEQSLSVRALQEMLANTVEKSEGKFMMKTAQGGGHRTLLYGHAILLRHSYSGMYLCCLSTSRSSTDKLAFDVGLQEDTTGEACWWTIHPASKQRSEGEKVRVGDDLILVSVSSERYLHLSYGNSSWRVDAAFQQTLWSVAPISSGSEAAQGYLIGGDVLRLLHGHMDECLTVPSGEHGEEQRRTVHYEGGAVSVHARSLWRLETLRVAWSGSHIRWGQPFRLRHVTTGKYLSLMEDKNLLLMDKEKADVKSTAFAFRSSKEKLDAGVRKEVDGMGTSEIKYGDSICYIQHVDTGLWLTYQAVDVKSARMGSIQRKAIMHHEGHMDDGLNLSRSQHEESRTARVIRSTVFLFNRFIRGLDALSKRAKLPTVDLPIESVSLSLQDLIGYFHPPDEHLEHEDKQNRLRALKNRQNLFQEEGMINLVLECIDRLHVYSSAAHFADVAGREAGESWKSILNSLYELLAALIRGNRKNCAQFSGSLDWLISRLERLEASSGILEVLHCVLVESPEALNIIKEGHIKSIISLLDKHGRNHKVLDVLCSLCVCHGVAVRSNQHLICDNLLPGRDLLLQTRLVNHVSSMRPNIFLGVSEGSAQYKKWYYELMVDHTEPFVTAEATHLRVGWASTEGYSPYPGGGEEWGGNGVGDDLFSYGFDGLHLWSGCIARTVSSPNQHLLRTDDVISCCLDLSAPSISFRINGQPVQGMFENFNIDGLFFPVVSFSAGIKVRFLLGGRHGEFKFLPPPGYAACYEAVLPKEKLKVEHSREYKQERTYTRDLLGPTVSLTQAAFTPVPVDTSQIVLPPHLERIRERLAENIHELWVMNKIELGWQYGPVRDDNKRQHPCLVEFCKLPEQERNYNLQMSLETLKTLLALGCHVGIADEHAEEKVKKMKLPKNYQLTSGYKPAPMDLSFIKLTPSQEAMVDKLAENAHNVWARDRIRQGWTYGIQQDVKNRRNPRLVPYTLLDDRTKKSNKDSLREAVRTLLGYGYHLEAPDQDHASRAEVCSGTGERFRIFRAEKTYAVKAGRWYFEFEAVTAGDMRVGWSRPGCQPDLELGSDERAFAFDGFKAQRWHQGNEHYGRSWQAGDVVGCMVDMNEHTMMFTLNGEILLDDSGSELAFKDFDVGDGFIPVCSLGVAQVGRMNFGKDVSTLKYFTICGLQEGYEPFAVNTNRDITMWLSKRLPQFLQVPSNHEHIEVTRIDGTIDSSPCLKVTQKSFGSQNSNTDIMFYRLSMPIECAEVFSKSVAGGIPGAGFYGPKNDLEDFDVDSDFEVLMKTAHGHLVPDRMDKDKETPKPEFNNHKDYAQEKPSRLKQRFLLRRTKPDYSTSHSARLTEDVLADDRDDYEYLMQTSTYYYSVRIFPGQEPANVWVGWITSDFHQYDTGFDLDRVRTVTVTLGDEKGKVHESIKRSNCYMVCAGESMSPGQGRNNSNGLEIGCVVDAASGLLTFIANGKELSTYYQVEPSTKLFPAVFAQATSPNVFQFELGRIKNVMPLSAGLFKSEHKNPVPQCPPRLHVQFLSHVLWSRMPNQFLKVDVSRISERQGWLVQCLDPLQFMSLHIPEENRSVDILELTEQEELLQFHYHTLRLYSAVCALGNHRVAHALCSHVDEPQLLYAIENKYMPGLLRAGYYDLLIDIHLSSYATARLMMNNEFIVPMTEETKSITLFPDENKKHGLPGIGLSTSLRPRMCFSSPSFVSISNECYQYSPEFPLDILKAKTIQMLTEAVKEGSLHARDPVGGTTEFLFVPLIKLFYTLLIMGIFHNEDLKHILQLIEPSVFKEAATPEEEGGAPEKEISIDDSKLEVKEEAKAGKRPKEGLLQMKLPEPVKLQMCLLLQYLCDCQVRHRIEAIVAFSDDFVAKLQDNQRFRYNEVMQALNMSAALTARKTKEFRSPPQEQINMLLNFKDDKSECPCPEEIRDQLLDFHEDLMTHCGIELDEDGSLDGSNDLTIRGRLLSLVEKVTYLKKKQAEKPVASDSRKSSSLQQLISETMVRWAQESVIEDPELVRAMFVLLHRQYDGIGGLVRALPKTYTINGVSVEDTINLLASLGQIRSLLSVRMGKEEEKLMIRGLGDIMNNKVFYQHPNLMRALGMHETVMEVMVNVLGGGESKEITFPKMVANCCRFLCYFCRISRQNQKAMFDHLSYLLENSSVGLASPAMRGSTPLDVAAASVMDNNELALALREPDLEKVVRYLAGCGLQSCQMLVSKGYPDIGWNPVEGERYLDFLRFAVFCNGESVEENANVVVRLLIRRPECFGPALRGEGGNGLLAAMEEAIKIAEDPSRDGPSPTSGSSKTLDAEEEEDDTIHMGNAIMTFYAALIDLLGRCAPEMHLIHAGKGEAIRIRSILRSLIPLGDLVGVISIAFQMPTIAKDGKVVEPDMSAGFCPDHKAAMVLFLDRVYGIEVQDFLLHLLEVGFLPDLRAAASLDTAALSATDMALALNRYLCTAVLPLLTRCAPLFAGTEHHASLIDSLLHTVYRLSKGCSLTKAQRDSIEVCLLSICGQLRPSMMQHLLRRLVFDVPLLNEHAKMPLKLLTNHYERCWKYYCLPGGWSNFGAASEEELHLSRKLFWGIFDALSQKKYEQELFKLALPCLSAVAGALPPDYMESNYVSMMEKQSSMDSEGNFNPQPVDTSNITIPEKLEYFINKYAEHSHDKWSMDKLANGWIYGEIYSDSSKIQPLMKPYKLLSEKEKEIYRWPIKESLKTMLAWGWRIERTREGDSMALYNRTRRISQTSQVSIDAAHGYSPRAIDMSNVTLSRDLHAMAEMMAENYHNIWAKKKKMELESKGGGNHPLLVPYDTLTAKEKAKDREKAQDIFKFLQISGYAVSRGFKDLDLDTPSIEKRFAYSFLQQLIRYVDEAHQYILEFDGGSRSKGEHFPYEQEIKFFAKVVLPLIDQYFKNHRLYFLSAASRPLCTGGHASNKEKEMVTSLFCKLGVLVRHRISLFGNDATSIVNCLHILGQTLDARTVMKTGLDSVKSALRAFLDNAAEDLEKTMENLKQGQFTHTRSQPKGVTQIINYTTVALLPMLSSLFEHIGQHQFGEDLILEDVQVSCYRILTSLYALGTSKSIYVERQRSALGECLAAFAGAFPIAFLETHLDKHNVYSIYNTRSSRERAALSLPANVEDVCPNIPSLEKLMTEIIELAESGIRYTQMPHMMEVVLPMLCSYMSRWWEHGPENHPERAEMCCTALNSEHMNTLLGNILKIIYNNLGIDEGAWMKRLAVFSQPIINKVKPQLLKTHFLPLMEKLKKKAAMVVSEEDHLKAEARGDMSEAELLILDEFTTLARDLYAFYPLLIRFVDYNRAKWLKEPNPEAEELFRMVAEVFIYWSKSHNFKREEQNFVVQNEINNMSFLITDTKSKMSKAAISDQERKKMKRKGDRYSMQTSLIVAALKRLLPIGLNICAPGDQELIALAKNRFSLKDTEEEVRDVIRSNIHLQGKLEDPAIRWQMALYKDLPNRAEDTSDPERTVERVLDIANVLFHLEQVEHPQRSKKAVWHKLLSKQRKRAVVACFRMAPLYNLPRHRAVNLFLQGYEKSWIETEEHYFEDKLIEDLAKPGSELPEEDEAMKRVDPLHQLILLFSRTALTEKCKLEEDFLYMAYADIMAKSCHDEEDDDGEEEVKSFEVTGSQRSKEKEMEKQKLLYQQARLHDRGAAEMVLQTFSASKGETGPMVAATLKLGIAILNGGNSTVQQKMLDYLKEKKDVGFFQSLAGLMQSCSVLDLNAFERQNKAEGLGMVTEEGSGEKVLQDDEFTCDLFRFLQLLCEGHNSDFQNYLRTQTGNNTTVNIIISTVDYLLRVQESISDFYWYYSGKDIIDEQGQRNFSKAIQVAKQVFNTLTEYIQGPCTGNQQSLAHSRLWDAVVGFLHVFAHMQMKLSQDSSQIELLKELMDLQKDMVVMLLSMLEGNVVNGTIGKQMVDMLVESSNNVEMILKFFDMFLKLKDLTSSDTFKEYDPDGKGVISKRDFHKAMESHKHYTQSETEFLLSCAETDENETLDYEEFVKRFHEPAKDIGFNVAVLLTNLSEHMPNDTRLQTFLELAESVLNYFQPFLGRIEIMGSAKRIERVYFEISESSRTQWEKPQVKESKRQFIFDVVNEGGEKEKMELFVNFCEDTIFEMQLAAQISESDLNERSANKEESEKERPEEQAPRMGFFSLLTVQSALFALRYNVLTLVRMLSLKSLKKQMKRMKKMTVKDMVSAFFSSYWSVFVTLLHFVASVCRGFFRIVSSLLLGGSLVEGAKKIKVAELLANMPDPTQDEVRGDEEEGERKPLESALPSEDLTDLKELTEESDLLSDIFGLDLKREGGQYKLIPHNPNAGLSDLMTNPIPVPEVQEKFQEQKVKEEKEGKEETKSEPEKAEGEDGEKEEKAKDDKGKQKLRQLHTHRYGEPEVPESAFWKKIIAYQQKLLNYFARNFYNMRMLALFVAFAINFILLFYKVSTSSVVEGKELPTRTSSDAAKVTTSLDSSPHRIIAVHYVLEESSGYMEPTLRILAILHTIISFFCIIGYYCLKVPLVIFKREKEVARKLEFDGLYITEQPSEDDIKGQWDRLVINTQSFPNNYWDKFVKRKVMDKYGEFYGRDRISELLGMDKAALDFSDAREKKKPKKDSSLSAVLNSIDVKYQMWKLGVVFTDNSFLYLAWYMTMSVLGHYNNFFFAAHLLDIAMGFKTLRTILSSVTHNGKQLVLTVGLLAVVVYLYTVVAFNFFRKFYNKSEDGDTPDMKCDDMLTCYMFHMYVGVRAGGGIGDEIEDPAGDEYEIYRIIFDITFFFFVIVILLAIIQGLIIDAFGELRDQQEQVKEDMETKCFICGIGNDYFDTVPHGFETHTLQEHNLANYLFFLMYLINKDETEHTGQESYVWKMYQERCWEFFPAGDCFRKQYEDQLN

GFCPDHKAAMVLFLDRVYGIEVQDFLLHLLEVGFLP [DPc10]
pKd: ~6.30 | Bmax value (summary in Discussion): 1.6 µmol/L
